In patent US10933064B2, “Crystalline forms of 5-bromo-2,6-di(1H-pyrazol-1-yl)pyrimidin-4-amine and new salts” (Novartis AG, priority 2017, dated 2021):
≈ marks a conversion by molar mass, not a printed value.

What was measured:
[1] = Stability when blended with excipients; type: physicochemical; conditions: four excipients (gelatin, HPMC, wet granulation mixture, dry blended mixture), 50° C./75% RH
[2] = Hygroscopicity, water sorption-desorption isotherm (DVS); type: physicochemical
Source text: Crystalline form F is non-hygroscopic.

[3] = Solubility in aqueous buffers and bio-relevant media; conditions: the salt dissociates
[4] = Intrinsic dissolution rate; type: physicochemical
[5] = 1 week
[6] = Granulation simulation experiments (XRPD, DSC); type: physicochemical; conditions: ground at 25° C.
Procedure: The physical stability of crystalline form F was also evaluated in granulation simulation experiments. In these experiments granulating solvent was added dropwise to the crystalline form F until the solid is wetted sufficiently. The mixture was then ground in a mortar/pestle at room temperature (25° C. for 2-3 minutes) between each addition. The crystallinity of the material (post-grinding) was re-evaluated by XRPD and DSC.

[7] = Physical stability on compression (XRPD); type: physicochemical; conditions: 5 minutes at 0.5 ton, 0.8 cm diameter disc
Procedure: The crystallinity of form F was evaluated by XRPD after compression for 5 minutes at 0.5 ton with 0.8 cm diameter disc.

[8] = 1 week, 0.1 %, pH 1.2
[9] = Phase change on exposure to humidity; type: physicochemical
[10] = physchem; conditions: aqueous buffer
[11] = Thermal stability of the crystalline form on heating and cooling (XRPD); type: physicochemical; conditions: heating to 220° C. (melt) then cooling to 30° C.

| degradation when blended with excipients [1] | hygroscopicity ([2]; relative humidity above 70%) | intrinsic dissolution ([4]; 0.01N HCl pH=2) [mg/cm^2/min] | intrinsic dissolution ([4]; acetate buffer pH 4.7) [mg/cm^2/min] | intrinsic dissolution ([4]; phosphate buffer pH 6.8) [mg/cm^2/min] | degradation in bulk [5] | form change after granulation simulation ([6]; ethanol as granulation solvent) | form change after granulation simulation ([6]; water as granulation solvent) | form change after compression [7] | degradation in buffer solution [8] [%] | degradation in buffer solutions [8] | phase change on exposure to humidity [9] | solubility [10] [µg/mL] | hygroscopicity ([2]; DVS, 25° C.) | moisture absorbed ([2]; DVS, up to 90% relative humidity, 25° C.) | crystalline form after heating and cooling [11] | intrinsic dissolution ([4]; 0.01N HCl pH=2, listed as form F) [mg/cm^2/min] | intrinsic dissolution ([4]; acetate buffer pH 4.7, listed as form F) [mg/cm^2/min] | intrinsic dissolution ([4]; phosphate buffer pH 6.8, listed as form F) [mg/cm^2/min] | SMILES | solubility compared with free form F [3] |
| --- | --- | --- | --- | --- | --- | --- | --- | --- | --- | --- | --- | --- | --- | --- | --- | --- | --- | --- | --- | --- |
| about 1% | very hygroscopic | 0.0592 | 0.0264 | 0.0277 |  |  |  |  |  |  |  |  |  |  |  |  |  |  | Nc1nc(-n2cccn2)nc(-n2cccn2)c1Br [Form C, 5-bromo-2,6-di(1H-pyrazol-1-yl)pyrimidin-4-amine] | does not show any better solubility than the free form F |
|  |  |  |  |  | less than 1% | no form change | no form change | no form change | 1 | less than 0.5% | little to no phase change | ~100 (≈ 327 µM) | non-hygroscopic | less than 0.2% | remains unchanged | 0.0115 | 0.0085 | 0.0084 | Nc1nc(-n2cccn2)nc(-n2cccn2)c1Br [Form F, 5-bromo-2,6-di(1H-pyrazol-1-yl)pyrimidin-4-amine] |  |
